Measurements: patent US10723723B2, “Substituted bicycle heterocyclic derivatives useful as ROMK channel inhibitors” (BRISTOL-MYERS SQUIBB COMPANY, priority 2016, dated 2020)

Each molecule was assayed against hROMK (human Kir1.1) (Homo sapiens (Human), UniProt P48048) (assay: Thallium Flux Assay (FluxOR, CHO T-Rex hROMK stable cell line)). Conditions: CHO T-Rex hROMK cells, 10-point concentration response curve; read-out: Human ROMK TH Flux IC50.
Type: cell-based
Protocol: Solutions and reagents: Thallium flux assay was performed using FluxOR kit (F10017, Life Technologies). Loading buffer, assay buffer and stimulus buffer were prepared using kit components.
To prepare 10 ml of loading buffer: 10 μl of FluxOR dye (reconstituted in DMSO) was first added to 100 μl of powerload concentrate and this mix along with 100 μl of Probenicid (100×) was then added to 9.79 ml of HBSS. […] Stimulus buffer was composed of 15 mM Tl2SO4, 0.75 mM K2SO4 in FluxOR chloride free buffer (diluted to 1× using deionized water). The final concentration of Tl2SO4 and K2SO4 in the assay plate was 3 mM and 0.15 mM, respectively.
Plating and induction of cells: The CHO T-Rex hROMK (human Kir1.1) stable cell line was maintained in Ham's F12 media supplemented with 10% FBS, 1% Penicillin-Streptomycin, 500 μg/ml Zeocin and 10 μg/ml Blasticidin at 37° C. in a 5% CO2 incubator. […] The cell suspension was centrifuged at 1200 rpm for 5 min. After discarding the supernatant, the cells were resuspended in fresh growth media and cell concentration was determined using a hemocytometer. […] The assay plate was kept at 37° C. in a 5% CO2 incubator.
Assay protocol: On the day of experiment, media was removed and loading buffer was added (30 μl/well) to the assay plate. The cells were incubated in the loading buffer for 30 minutes at 37° C. The loading buffer was then replaced by assay buffer (30 μl/well) followed by addition of test compounds or controls. […] Each well was read for 90 sec at 2 sec interval and the stimulus buffer was added after 20 seconds of baseline recording. The final DMSO concentration was either 0.5 or 1% in the assay plate. Positive and negative controls were defined by addition of DMSO or 3 μM of a standard ROMK inhibitor, respectively, to the wells instead of a test compound.
A 10-point concentration response curve was used to estimate the IC50 value of test compounds.

hROMK (human Kir1.1), sequence (P48048 whole entry): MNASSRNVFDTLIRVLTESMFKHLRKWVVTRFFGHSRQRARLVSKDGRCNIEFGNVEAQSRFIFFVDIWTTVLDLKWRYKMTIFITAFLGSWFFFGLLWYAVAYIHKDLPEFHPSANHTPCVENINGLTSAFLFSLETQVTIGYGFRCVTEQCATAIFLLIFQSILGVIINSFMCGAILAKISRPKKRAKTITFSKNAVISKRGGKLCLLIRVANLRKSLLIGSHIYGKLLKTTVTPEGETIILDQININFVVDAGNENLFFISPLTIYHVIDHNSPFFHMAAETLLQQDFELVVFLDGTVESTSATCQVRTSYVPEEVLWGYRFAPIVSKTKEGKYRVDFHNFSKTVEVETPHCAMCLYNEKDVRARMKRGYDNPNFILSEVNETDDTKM

Row | SMILES | IC50 [nM]
1 | Cc1c(C(O)CN(C)Cc2ccc(-c3ccc4oc(=O)n(C)c4c3)nc2)ccc2c1COC2=O (single isomer, unassigned) [Example 1-II, 5-(5-(((2-hydroxy-2-(4-methyl-1-oxo-1,3-dihydroisobenzofuran-5-yl)ethyl)(methyl)amino)methyl)pyridin-2-yl)-3-methylbenzo[d]oxazol-2(3H)-one] | 830
2 | CN(Cc1ccc(-c2ccc3oc(=O)n(C)c3c2)nc1)CC(O)c1ccc2oc(=O)n(C)c2c1 (single isomer, unassigned) [Example 5-I] | 1500
3 | Cc1c(C(O)CNCc2ccc(-c3ccc(C#N)c(F)c3)cc2)ccc2c1COC2=O (single isomer, unassigned) [Example 10-II, 3-fluoro-4′-(((2-hydroxy-2-(4-methyl-1-oxo-1,3-dihydroisobenzofuran-5-yl)ethyl)amino)methyl)-[1,1′-biphenyl]-4-carbonitrile] | 140
4 | Cc1c(C(O)CN(C)Cc2ccc(-n3cc(C#N)c4ccccc43)cc2)ccc2c1COC2=O (single isomer, unassigned) [Example 12-II, 1-(4-(((2-hydroxy-2-(4-methyl-1-oxo-1,3-dihydroisobenzofuran-5-yl)ethyl)(methyl)amino)methyl)phenyl)-1H-indole-3-carbonitrile] | 520
5 | Cc1c(C(CO)N(C)Cc2cnc(-c3ccc4oc(=O)n(C)c4c3)nc2)ccc2c1COC2=O (single isomer, unassigned) [Example 14-I, 5-(5-(((2-hydroxy-1-(4-methyl-1-oxo-1,3-dihydroisobenzofuran-5-yl)ethyl)(methyl)amino)methyl)pyrimidin-2-yl)-3-methylbenzo[d]oxazol-2(3H)-one] | 4000
6 | Cc1c(C(CO)NCCc2cccc(-c3ccc(C#N)c(F)c3)c2)ccc2c1COC2=O (single isomer, unassigned) [Example 15-I, 3-fluoro-3′-(2-((2-hydroxy-1-(4-methyl-1-oxo-1,3-dihydroisobenzofuran-5-yl)ethyl)amino)ethy)-[1,1′-biphenyl]-4-carbonitrile] | 2000
7 | Cc1c(C(CO)NCCc2cccc(-c3ccc(C#N)c(F)c3)c2)ccc2c1COC2=O (single isomer, unassigned) [Example 15-II, 3-fluoro-3′-(2-((2-hydroxy-1-(4-methyl-1-oxo-1,3-dihydroisobenzofuran-5-yl)ethyl)amino)ethy)-[1,1′-biphenyl]-4-carbonitrile] | 1500
8 | Cc1c(C(O)CNCc2ccc3c(cnn3-c3ccc(F)cc3)c2)ccc2c1COC2=O (single isomer, unassigned) [Example 16-I, 5-(2-(((1-(4-fluorophenyl)-1H-indazol-5-yl)methyl)amino)-1-hydroxyethyl)-4-methylisobenzofuran-1(3H)-one] | 480
9 | Cc1c(C(O)CN(C)Cc2cnc(-n3ncc4ncccc43)nc2)ccc2c1COC2=O (single isomer, unassigned) [Example 17-I, 5-(2-(((2-(1H-pyrazolo[4,3-b]pyridin-1-yl)pyrimidin-5-yl)methyl)(mehyl)amino)-1-hydroxyethyl)-4-methylisobenzofuran-1(3H)-one] | 1500
10 | Cc1c(C(O)CN(C)Cc2cnc(-n3ncc4c(C#N)cccc43)nc2)ccc2c1COC2=O (single isomer, unassigned) [Example 18-I, 1-(5-(((2-hydroxy-2-(4-methyl-1-oxo-1,3-dihydroisobenzofuran-5-yl)ethyl)(methyl)amino)methyl)pyrimidin-2-yl)-1H-indazole-4-carbonitrile] | 230
11 | CN(Cc1ccc(-c2ccc(C#N)c(F)c2)nc1)CC(O)c1ccc2oc(=O)n(C)c2c1 (single isomer, unassigned) [Example 24-I, 2-fluoro-4-(5-(((2-hydroxy-2-(3-methyl-2-oxo-2,3-dihydrobenzo[d]oxazol-5-yl)ethyl)(methyl)amino)methyl)pyridin-2-yl)benzonitrile] | 2400
12 | CN(Cc1ccc(-c2ccc(C#N)c(F)c2)nc1)CC(O)c1ccc2oc(=O)n(C)c2c1 (single isomer, unassigned) [Example 24-II, 2-fluoro-4-(5-(((2-hydroxy-2-(3-methyl-2-oxo-2,3-dihydrobenzo[d]oxazol-5-yl)ethyl)(methyl)amino)methyl)pyridin-2-yl)benzonitrile] | 2400
13 | Cc1c(C(O)CN(C)Cc2ccc(-n3ccc4c(C#N)cccc43)nc2)ccc2c1COC2=O (single isomer, unassigned) [Example 25-I, 1-(5-(((2-hydroxy-2-(4-methyl-1-oxo-1,3-dihydroisobenzofuran-5-yl)ethyl)(methyl)amino)methyl)pyridin-2-yl)-1H-indole-4-carbonitrile] | 240
14 | Cc1c(C(O)CN(C)Cc2ccc(-n3ccc4c(C#N)cccc43)nc2)ccc2c1COC2=O (single isomer, unassigned) [Example 25-II, 1-(5-(((2-hydroxy-2-(4-methyl-1-oxo-1,3-dihydroisobenzofuran-5-yl)ethyl)(methyl)amino)methyl)pyridin-2-yl)-1H-indole-4-carbonitrile] | 520
15 | Cc1c(C(O)CN(C)Cc2ccc(-c3ccc(C#N)c(F)c3)cc2)ccc2c1COC2=O (single isomer, unassigned) [Example 27-II, 3-fluoro-4′-(((2-hydroxy-2-(4-methyl-1-oxo-1,3-dihydroisobenzofuran-5-yl)ethyl)(methyl)amino)methyl)-[1,1′-biphenyl]-4-carbonitrile] | 240
16 | Cc1c(C(O)CN(C)Cc2ccc(-n3ccc4c(C#N)cccc43)cc2)ccc2c1COC2=O (single isomer, unassigned) [Example 28-II, 1-(4-(((2-hydroxy-2-(4-methyl-1-oxo-1,3-dihydroisobenzofuran-5-yl)ethyl)(methyl)amino)methyl)phenyl)-1H-indole-4-carbonitrile] | 390

Row | SMILES | IC50 [nM]
17 | Cc1c(C(O)CN(C)Cc2ccc(-n3ccc4cc(C#N)ccc43)cc2)ccc2c1COC2=O (single isomer, unassigned) [Example 30-II, 1-(4-(((2-hydroxy-2-(4-methyl-1-oxo-1,3-dihydroisobenzofuran-5-yl)ethyl)(methyl)amino)methyl)phenyl)-1H-indole-5-carbonitrile] | 1200
18 | Cc1cc(-c2ccc(CN(C)CC(O)c3ccc4c(c3C)COC4=O)cc2)ncc1C#N (single isomer, unassigned) [Example 31-II, 6-(4-(((2-hydroxy-2-(4-methyl-1-oxo-1,3-dihydroisobenzofuran-5-yl)ethyl)(methyl)amino)methyl)phenyl)-4-methylnicotinonitrile] | 370
19 | Cc1c(C(O)CN(C)Cc2ccc(-n3ccc4cc(C#N)ccc43)cc2)ccc2c1COC2=O (single isomer, unassigned) [Example 32-I, 1-(4-(((2-hydroxy-2-(4-methyl-1-oxo-1,3-dihydroisobenzofuran-5-yl)ethyl)(methyl)amino)methyl)phenyl)-1H-indole-5-carbonitrile] | 530
20 | Cc1cc(-n2ccc3cc(CN(C)CC(O)c4ccc5c(c4C)COC5=O)ccc32)ncc1C#N (single isomer, unassigned) [Example 33-I, 6-(5-(((2-hydroxy-2-(4-methyl-1-oxo-1,3-dihydroisobenzofuran-5-yl)ethyl)(methyl)amino)methyl)-1H-indol-1-yl)-4-methylnicotinonitrile] | 3300
21 | CC(=O)N(Cc1ccc(-c2ccc(C#N)c(F)c2)cc1)CC(O)c1ccc2c(c1C)COC2=O (single isomer, unassigned) [Example 34-I, N-((4′-cyano-3′-fluoro-[1,1′-biphenyl]-4-yl)methyl)-N-(2-hydroxy-2-(4-methyl-1-oxo-1,3-dihydroisobenzofuran-5-yl)ethyl)acetamide] | 780
22 | Cc1cc(-n2ncc(C(C)NC[C@H](O)c3ccc4c(c3C)COC4=O)n2)ncc1C#N (single isomer, unassigned) [Example 59] | 540
23 | Cc1cn(-c2ncc(CNC[C@H](O)c3ccc4c(c3C)COC4=O)cc2F)cn1 (single isomer, unassigned) [Example 83] | 46
24 | Cc1c([C@@H](O)CN(C)Cc2ccc(-c3ccc4oc(=O)n(C)c4c3)cn2)ccc2c1COC2=O (single isomer, unassigned) [Example 84] | 82
25 | Cc1cc(-n2cc(CNCC(C)(O)c3ccc4c(c3C)COC4=O)cn2)ncc1C#N (single isomer, unassigned) [Example 170-I, 6-(4-(((2-hydroxy-2-(4-methyl-1-oxo-1,3-dihydroisobenzofuran-5-yl)propyl)amino)methyl)-1H-pyrazol-1-yl)-4-methylnicotinonitrile] | 160
26 | Cc1cc(-n2cc(CNCC(O)c3ccc4c(c3C)C(C)OC4=O)cn2)ncc1C#N (single isomer, unassigned) [Example 172-I, 6-(4-(((2-(3,4-dimethyl-1-oxo-1,3-dihydroisobenzofuran-5-yl)-2-hydroxyethyl)amino)meth-yl)-1H-pyrazol-1-yl)-4-methylnicotinonitrile] | 850
27 | Cc1cc(-n2cc(CNCC(O)c3ccc4c(c3C)C(C)OC4=O)cn2)ncc1C#N (single isomer, unassigned) [Example 172-II, 6-(4-(((2-(3,4-dimethyl-1-oxo-1,3-dihydroisobenzofuran-5-yl)-2-hydroxyethyl)amino)meth-yl)-1H-pyrazol-1-yl)-4-methylnicotinonitrile] | 1800
28 | Cc1c(C(CO)N(C)Cc2cnc(-n3ncc4c(C#N)cccc43)nc2)ccc2c1COC2=O (stereo not shown) [Example 2-I] | 1900
29 | Cc1c(C(O)CN(C)Cc2cnc(-c3ccc4oc(=O)n(C)c4c3)nc2)ccc2c1COC2=O (stereo not shown) [Example 9-I] | 290
30 | Cc1c(C(O)CN(Cc2ccc(-c3ccc(C#N)c(F)c3)cc2)Cc2cccnc2)ccc2c1COC2=O (stereo not shown) [Example 11-I, 3-fluoro-4′-(((2-hydroxy-2-(4-methyl-1-oxo-1,3-dihydroisobenzofuran-5-yl)ethyl)(pyridin-3-ylmethyl)amino)methyl)-[1,1′-biphenyl]-4-carbonitrile] | 3700
31 | CN(Cc1ccc(-c2ccc(C#N)c(F)c2)cc1)Cc1ccc2c(c1)COC2=O [Example 29, 3-fluoro-4′-((methyl((1-oxo-1,3-dihydroisobenzofuran-5-yl)methyl)amino)methyl)-[1,1′-biphenyl]-4-carbonitrile] | 3300
